In PubChem BioAssay (NCI):
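Protocol summary: plate cells (96-well), add compound at 5 concentrations, incubate 48 h, interpolate endpoints linearly. At the GI50, growth is halved. At the TGI there is no net growth.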

Experiments:
Test in all cases: NCI tumour cell line growth inhibition, 48 h
SK-MEL-28 melanoma = test system: SK-MEL-28 melanoma
HT29 colon = test system: HT29 colon
NCI-H226 lung = test system: NCI-H226 lung
K-562 leukemia = test system: K-562 leukemia
A549 NSCLC = test system: A549 NSCLC
RXF 393 renal = test system: RXF 393 renal
UACC-62 melanoma = test system: UACC-62 melanoma
NCI/ADR-RES ovarian = test system: NCI/ADR-RES ovarian
SNB-75 CNS = test system: SNB-75 CNS
OVCAR-4 ovarian = test system: OVCAR-4 ovarian
SF-539 CNS = test system: SF-539 CNS
CCRF-CEM leukemia = test system: CCRF-CEM leukemia
NCI-H460 lung = test system: NCI-H460 lung
T-47D breast = test system: T-47D breast
OVCAR-5 ovarian = test system: OVCAR-5 ovarian
MALME-3M melanoma = test system: MALME-3M melanoma
MOLT-4 leukemia = test system: MOLT-4 leukemia
HS 578T breast = test system: HS 578T breast
SF-295 CNS = test system: SF-295 CNS
IGROV1 ovarian = test system: IGROV1 ovarian
SF-268 CNS = test system: SF-268 CNS
HOP-92 NSCLC = test system: HOP-92 NSCLC
BT-549 breast = test system: BT-549 breast
HL-60(TB) leukemia = test system: HL-60(TB) leukemia
ACHN renal = test system: ACHN renal
SR leukemia = test system: SR leukemia
HOP-62 NSCLC = test system: HOP-62 NSCLC
UACC-257 melanoma = test system: UACC-257 melanoma
OVCAR-8 ovarian = test system: OVCAR-8 ovarian
NCI-H522 lung = test system: NCI-H522 lung
SN12C renal = test system: SN12C renal
DU-145 prostate = test system: DU-145 prostate
SK-MEL-5 melanoma = test system: SK-MEL-5 melanoma
SK-OV-3 ovarian = test system: SK-OV-3 ovarian
MCF7 breast = test system: MCF7 breast
RPMI-8226 leukemia = test system: RPMI-8226 leukemia
UO-31 renal = test system: UO-31 renal
CAKI-1 renal = test system: CAKI-1 renal
U251 CNS = test system: U251 CNS
HCT-15 colon = test system: HCT-15 colon
M14 melanoma = test system: M14 melanoma
SK-MEL-2 melanoma = test system: SK-MEL-2 melanoma
PC-3 prostate = test system: PC-3 prostate
MDA-MB-435 = test system: MDA-MB-435
COLO 205 colon = test system: COLO 205 colon
EKVX NSCLC = test system: EKVX NSCLC
HCC-2998 colon = test system: HCC-2998 colon
TK-10 renal = test system: TK-10 renal
SNB-19 CNS = test system: SNB-19 CNS
LOX IMVI melanoma = test system: LOX IMVI melanoma
MDA-MB-231 breast = test system: MDA-MB-231 breast
NCI-H23 lung = test system: NCI-H23 lung
SW-620 colon = test system: SW-620 colon
HCT-116 colon = test system: HCT-116 colon
KM12 colon = test system: KM12 colon
OVCAR-3 ovarian = test system: OVCAR-3 ovarian
A498 renal = test system: A498 renal

COc1ccc2[nH]c(O)c(/C=c3/cc4c(c(-c5ccc(F)c(OC)c5)n3)=Nc3ccccc3-4)c2c1
GI50 (SK-MEL-28 melanoma): 2.06 µM | TGI (SK-MEL-28 melanoma): 4.51 µM | GI50 (HT29 colon): 2.03 µM | TGI (HT29 colon): 4 µM | GI50 (NCI-H226 lung): 16.4 µM | TGI (NCI-H226 lung): 33.1 µM | GI50 (K-562 leukemia): 3.16 µM | TGI (K-562 leukemia): 10.2 µM | GI50 (A549 NSCLC): 4.37 µM | TGI (A549 NSCLC): 19.3 µM | GI50 (RXF 393 renal): 1.53 µM | TGI (RXF 393 renal): 3.01 µM | GI50 (UACC-62 melanoma): 1.7 µM | TGI (UACC-62 melanoma): 3.16 µM | GI50 (NCI/ADR-RES ovarian): 2.56 µM | TGI (NCI/ADR-RES ovarian): 11.2 µM | GI50 (SNB-75 CNS): 1.56 µM | TGI (SNB-75 CNS): 3.56 µM | GI50 (OVCAR-4 ovarian): 3.53 µM | TGI (OVCAR-4 ovarian): 16.3 µM | GI50 (SF-539 CNS): 1.86 µM | TGI (SF-539 CNS): 3.37 µM | GI50 (CCRF-CEM leukemia): 2.13 µM | TGI (CCRF-CEM leukemia): 9.88 µM | GI50 (NCI-H460 lung): 1.78 µM | TGI (NCI-H460 lung): 3.41 µM | GI50 (T-47D breast): 1.85 µM | TGI (T-47D breast): 3.78 µM | GI50 (OVCAR-5 ovarian): 3.56 µM | TGI (OVCAR-5 ovarian): 10.8 µM | GI50 (MALME-3M melanoma): 2.03 µM | TGI (MALME-3M melanoma): 3.92 µM | GI50 (MOLT-4 leukemia): 2.3 µM | TGI (MOLT-4 leukemia): 5.68 µM | GI50 (HS 578T breast): 1.87 µM | TGI (HS 578T breast): 5.04 µM | GI50 (SF-295 CNS): 2.26 µM | TGI (SF-295 CNS): 6.51 µM | GI50 (IGROV1 ovarian): 4.41 µM | TGI (IGROV1 ovarian): 17.6 µM | GI50 (SF-268 CNS): 3.68 µM | TGI (SF-268 CNS): 18 µM | GI50 (HOP-92 NSCLC): 1.5 µM | TGI (HOP-92 NSCLC): 6.62 µM | GI50 (BT-549 breast): 1.89 µM | TGI (BT-549 breast): 3.91 µM | GI50 (HL-60(TB) leukemia): 14.4 µM | TGI (HL-60(TB) leukemia): 35.1 µM | GI50 (ACHN renal): 3.01 µM | TGI (ACHN renal): 9.86 µM | GI50 (SR leukemia): 1.86 µM | TGI (SR leukemia): 6.96 µM | GI50 (HOP-62 NSCLC): 2.42 µM | TGI (HOP-62 NSCLC): 4.88 µM | GI50 (UACC-257 melanoma): 2.81 µM | TGI (UACC-257 melanoma): 8.86 µM | GI50 (OVCAR-8 ovarian): 3.22 µM | TGI (OVCAR-8 ovarian): 11.8 µM | GI50 (NCI-H522 lung): 1.81 µM | TGI (NCI-H522 lung): 4.14 µM | GI50 (SN12C renal): 12.9 µM | TGI (SN12C renal): 30.5 µM | GI50 (DU-145 prostate): 4.11 µM | TGI (DU-145 prostate): 32.6 µM | GI50 (SK-MEL-5 melanoma): 3.07 µM | TGI (SK-MEL-5 melanoma): 22 µM | GI50 (SK-OV-3 ovarian): 11.3 µM | TGI (SK-OV-3 ovarian): 26.2 µM | GI50 (MCF7 breast): 1.76 µM | TGI (MCF7 breast): 4.44 µM | GI50 (RPMI-8226 leukemia): 2.04 µM | TGI (RPMI-8226 leukemia): 5.53 µM | GI50 (UO-31 renal): 3.86 µM | TGI (UO-31 renal): 18.8 µM | GI50 (CAKI-1 renal): 18.2 µM | TGI (CAKI-1 renal): 36.9 µM | GI50 (U251 CNS): 1.7 µM | TGI (U251 CNS): 3.21 µM | GI50 (HCT-15 colon): 2.36 µM | TGI (HCT-15 colon): 5.63 µM | GI50 (M14 melanoma): 2 µM | TGI (M14 melanoma): 4.15 µM | GI50 (SK-MEL-2 melanoma): 2.23 µM | TGI (SK-MEL-2 melanoma): 5.41 µM | GI50 (PC-3 prostate): 8.11 µM | TGI (PC-3 prostate): 38.4 µM | GI50 (MDA-MB-435): 2.39 µM | TGI (MDA-MB-435): 6.01 µM | GI50 (COLO 205 colon): 2.56 µM | TGI (COLO 205 colon): 5.87 µM | GI50 (EKVX NSCLC): 8.71 µM | TGI (EKVX NSCLC): 36 µM | GI50 (HCC-2998 colon): 2.13 µM | TGI (HCC-2998 colon): 4.62 µM | GI50 (TK-10 renal): 2.91 µM | TGI (TK-10 renal): 6.95 µM | GI50 (SNB-19 CNS): 2.85 µM | TGI (SNB-19 CNS): 11.6 µM | GI50 (LOX IMVI melanoma): 1.72 µM | TGI (LOX IMVI melanoma): 3.29 µM | GI50 (MDA-MB-231 breast): 1.47 µM | TGI (MDA-MB-231 breast): 3.14 µM | GI50 (NCI-H23 lung): 4.68 µM | TGI (NCI-H23 lung): 38.2 µM | GI50 (SW-620 colon): 1.77 µM | TGI (SW-620 colon): 3.8 µM | GI50 (HCT-116 colon): 1.82 µM | TGI (HCT-116 colon): 3.37 µM | GI50 (KM12 colon): 2.58 µM | TGI (KM12 colon): 7.3 µM | GI50 (OVCAR-3 ovarian): 1.99 µM | TGI (OVCAR-3 ovarian): 3.58 µM | GI50 (A498 renal): 4.42 µM | TGI (A498 renal): 19.2 µM
